Laboratory results published in PubChem BioAssay AID1996.
Converted amounts (≈) assume the structure as drawn.

Conditions: buffer; pH 7.4; 200.0 µM

| solubility kinetic [µg/mL] | Structure (SMILES) |
| --- | --- |
| 6.1 (≈ 18.6 µM) | CC(NC(=O)COC(=O)/C=C/c1cccc(F)c1)c1ccccc1 (stereo not given) |
| > 46.7 | CC1CN(C(=O)c2ccc(Oc3ccccc3)cc2)CC(C)O1 (stereo not given) |
| > 43.4 | Cc1cc(C)cc(C(=O)OCC(=O)N2CCCCCC2)c1 |
| 40.5 (≈ 143 µM) | CN(C)c1nc(N)c([N+](=O)[O-])c(NCC2CCCO2)n1 (stereo not given) |
| 1.9 (≈ 6.42 µM) | O=C(CCCOc1ccc(Cl)cc1)NC1CCCCC1 |
| > 45.3 | COc1ccccc1CNC(=O)CCNC(=O)c1ccco1 |
| 1.7 (≈ 4.65 µM) | O=C(Nc1ccccc1)N1CCCN(c2nccc(C(F)(F)F)n2)CC1 |
| > 44.9 | O=C1CN(S(=O)(=O)c2ccc([N+](=O)[O-])cc2)CC(=O)N1 |
| > 41.5 | CCCCOc1ccc(C2(C)NC(=O)N(C)C2=O)cc1 (stereo not given) |
| 32.9 (≈ 111 µM) | CCc1nccn1S(=O)(=O)c1cc(OC)ccc1OC |
| 12 (≈ 39 µM) | CC(C)N(Cc1ccccc1)S(=O)(=O)c1ccc(F)cc1 |
| > 38.4 | O=C(CC(=O)Nc1cccnc1)Nc1cccnc1 |
| > 43.9 | O=C(NCCCN1CCCC1)Nc1ccccc1[N+](=O)[O-] |
| 11.6 (≈ 34.7 µM) | N#Cc1c(-c2ccccc2Cl)c2c([nH]c1=O)-c1ccccc1OC2 |
| > 38.1 | CC(C)Cn1c(S(=O)(=O)O)nc2ccccc21 |
| 40.6 (≈ 142 µM) | CN(C(=O)CSC(=O)c1ccccc1)c1ccccc1 |
| > 46.9 | CC(C)c1ccc(NC2CCCN(C(=O)c3ccco3)C2)cc1 (stereo not given) |
| > 59.1 | COc1ccc(Cl)cc1NC(=O)CN(C)CC(=O)NCc1ccc(F)cc1 |
| > 49.1 | O=C(O)c1ccc(Nc2ccc(Cl)c(Cl)c2)c([N+](=O)[O-])c1 |
| > 31.7 | O=C(Cn1cnc([N+](=O)[O-])n1)NC1CC1 |

| solubility kinetic [µg/mL] | Structure (SMILES) |
| --- | --- |
| 15.1 (≈ 43.8 µM) | COc1ccc(CNc2nc3ccc(C)cc3s2)c(OC)c1OC |
| 24.8 (≈ 88.5 µM) | Cc1ccccc1NC(=O)CN1CCc2ccccc2C1 |
| 4.6 (≈ 17.9 µM) | COc1ccc(C)cc1NC(=O)Nc1ccncc1 |
| 34 (≈ 108 µM) | Cc1ccc(OCc2cc(C(=O)NC3CCCCC3)no2)cn1 |
| > 37.8 | O=C1OCCN/C1=C\C(=O)c1ccc(Cl)cc1 |
| 28.2 (≈ 131 µM) | COc1ccccc1CNc1cncnc1 |
| > 44.8 | COc1ccccc1CCC(=O)NNC(=O)c1ccccc1 |
| > 44.2 | CCc1ccccc1N(C(C)=O)c1nc(CCl)cs1 |
| > 33.9 | Cc1ccc(CNC(=O)c2cccnc2)cc1 |
| > 53.3 | Cc1ccc([N+](=O)[O-])cc1N(CC(=O)N1CCCCC1)S(C)(=O)=O |
| 21.7 (≈ 67.5 µM) | N#CCCN(Cc1ccccc1)C(=O)Nc1ccc2c(c1)CCO2 |
| 4.4 (≈ 12.1 µM) | Cc1cccc(OCC(=O)Nc2ccc(NC(=O)c3ccco3)c(C)c2)c1 |
| > 38.1 | CCC(C(=O)NCc1cccnc1)c1ccccc1 (stereo not given) |
| 0.5 (≈ 1.72 µM) | COc1ccc(Nc2oc(-c3ccccc3)nc2C#N)cc1 |
| 43.4 (≈ 141 µM) | CCC(CC)C(=O)Nc1ccc(-c2cn3cccnc3n2)cc1 |
| > 17.1 | NC(=O)C1CCCN1 (stereo not given) |
| 4.6 (≈ 14.2 µM) | COc1cccc2cc(C(=O)Nc3ccccc3C)/c(=N/O)oc12 |
| > 53.9 | CC1CCN(C(=O)Cn2cc([N+](=O)[O-])ccc2=O)c2ccccc2S1 (stereo not given) |
| 2.5 (≈ 7.71 µM) | CCOc1ccc(NC(=O)Nc2ccc3c(c2)nc(C)n3C)cc1 |
| 0.8 (≈ 2.32 µM) | CC(=O)c1ccc(N/C=C/C(=O)c2ccc(Br)cc2)cc1 |

| solubility kinetic [µg/mL] | Structure (SMILES) |
| --- | --- |
| > 54.3 | O=C(CCl)Nc1ncc(S(=O)(=O)c2ccc([N+](=O)[O-])cc2)s1 |
| > 39.2 | Cc1cc(=O)oc(C)c1C(=O)Nc1ccc(F)cc1 |
| 24.3 (≈ 92.3 µM) | CC(C)N1CCN(Cc2ccncc2)CC1CCO (stereo not given) |
| 0.4 (≈ 1.31 µM) | O=Cc1cn(CC(=O)N2CCc3ccccc32)c2ccccc12 |
| 41.6 (≈ 145 µM) | CCc1c(C)c2ccc(O)c(CN3CCCC3)c2oc1=O |
| 7.5 (≈ 27.1 µM) | O=C(c1cc(-c2cccc(Cl)c2)on1)N1CCCC1 |
| > 51.6 | O=C(CN1CCN(Cc2ccccc2)CC1)Nc1cccc(Cl)c1 |
| 37.4 (≈ 111 µM) | OC(COc1ccc(F)cc1Cl)CN1CCc2ccccc2C1 (stereo not given) |
| 2.3 (≈ 6.55 µM) | Cc1cc(CNC(=O)COc2ccc([N+](=O)[O-])cc2)c2ccccc2n1 |
| > 49.2 | Cc1ccc(NCC(=O)N/N=C/c2cc(O)ccc2[N+](=O)[O-])cc1 |
| < 0.8 | OCc1cc(Br)ccc1OCc1nc2ccccc2s1 |
| 45 (≈ 148 µM) | CC(Sc1ncccn1)C(=O)Nc1ccc2c(c1)OCO2 (stereo not given) |
| > 48.2 | CCCN(CC1CC1)C(=O)CSc1ncnc2sccc12 |
| > 55.6 | O=C(N/C(=C/c1ccccc1Cl)C(=O)N1CCOCC1)c1ccccc1 |
| 51.8 (≈ 145 µM) | CCOC(=O)Cc1csc(NC(=O)c2cc(=O)c3ccccc3o2)n1 |
| > 49.1 | CCN(CC)CCCNc1nc(N)c([N+](=O)[O-])c(NCCO)n1 |
| 7.6 (≈ 26.1 µM) | FC(F)(F)c1ccccc1-c1nc(-c2ccncc2)no1 |
| > 46.6 | CC1CC(C)CN(C(=O)COC(=O)c2ccc(Cl)nc2)C1 (stereo not given) |
| 47.9 (≈ 133 µM) | Cc1ccc(C)c(NC(=O)CN(C)C(C)C(=O)N2CC(C)CC(C)C2)c1 (stereo not given) |
| 3.8 (≈ 11.2 µM) | CCOC(=O)Cc1csc(NC(=O)CN2CCN(CC)CC2)n1 |
